Measurements from PubChem BioAssay (NCI).
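Following 48 hours of exposure in 96-well plates, responses at five concentrations were used to interpolate endpoints linearly. TGI is the concentration that stops growth completely.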

How the values were obtained:
Test in all cases: NCI anticancer screen, dose series, 48 h
786-0 renal = tested on: 786-0 renal
A498 renal = tested on: A498 renal
BT-549 breast = tested on: BT-549 breast
EKVX NSCLC = tested on: EKVX NSCLC
HOP-62 NSCLC = tested on: HOP-62 NSCLC
HS 578T breast = tested on: HS 578T breast
HT29 colon = tested on: HT29 colon
IGROV1 ovarian = tested on: IGROV1 ovarian
MALME-3M melanoma = tested on: MALME-3M melanoma
MCF7 breast = tested on: MCF7 breast
NCI-H460 lung = tested on: NCI-H460 lung
NCI-H522 lung = tested on: NCI-H522 lung
OVCAR-8 ovarian = tested on: OVCAR-8 ovarian
SNB-75 CNS = tested on: SNB-75 CNS
T-47D breast = tested on: T-47D breast
TK-10 renal = tested on: TK-10 renal
U251 CNS = tested on: U251 CNS
UO-31 renal = tested on: UO-31 renal
CCRF-CEM leukemia = tested on: CCRF-CEM leukemia

| Structure (SMILES) | TGI (786-0 renal) [µM] | TGI (A498 renal) [µM] | TGI (BT-549 breast) [µM] | TGI (EKVX NSCLC) [µM] | TGI (HOP-62 NSCLC) [µM] | TGI (HS 578T breast) [µM] | TGI (HT29 colon) [µM] | TGI (IGROV1 ovarian) [µM] | TGI (MALME-3M melanoma) [µM] | TGI (MCF7 breast) [µM] | TGI (NCI-H460 lung) [µM] | TGI (NCI-H522 lung) [µM] | TGI (OVCAR-8 ovarian) [µM] | TGI (SNB-75 CNS) [µM] | TGI (T-47D breast) [µM] | TGI (TK-10 renal) [µM] | TGI (U251 CNS) [µM] | TGI (UO-31 renal) [µM] | TGI (CCRF-CEM leukemia) [µM] |
| --- | --- | --- | --- | --- | --- | --- | --- | --- | --- | --- | --- | --- | --- | --- | --- | --- | --- | --- | --- |
| COCCOC1=C(Cl)C(=O)c2c(O)ccc(O)c2C1=O | 3.23 | 22.2 | 5.44 | 11.5 | 9.94 | 8.34 | 7.7 | 6.27 | 2.17 | 3.04 | 17.2 | 1.67 | 6.66 | 13.9 | 6.61 | 3.24 | 12.1 | 3.83 | – |
| O=c1c2ccccc2nc2sc(/N=C/C=C/c3ccccc3)nn12 | > 100 | > 100 | > 100 | > 100 | > 100 | > 100 | > 100 | > 100 | > 100 | > 100 | > 100 | > 100 | > 100 | > 100 | > 100 | > 100 | > 100 | > 100 | > 100 |
| CC(=O)Oc1ccc(/C=C/C(=O)OCCOC(=O)/C=C/c2ccc(OC(C)=O)c(OC(C)=O)c2)cc1OC(C)=O | 22.3 | 52.5 | 53 | 45 | 5.23 | 62.7 | > 56.7 | 10.7 | 30.1 | 28.6 | 32 | 17 | 35 | 22.5 | 43 | 37.2 | 22.1 | 15.3 | 6.12 |
| N#CCC1(c2ccc(Cl)cc2)NC(=O)c2ccccc21 (stereo not given) | > 100 | > 100 | > 100 | > 100 | > 100 | > 100 | > 100 | > 100 | > 100 | > 100 | > 100 | > 100 | > 100 | > 100 | > 100 | > 100 | > 100 | > 100 | > 100 |
| COC(=O)c1ccc(/C=C2\Oc3cc(O)ccc3C2=O)cc1 | > 100 | – | > 100 | > 100 | > 100 | > 100 | – | > 100 | – | > 100 | > 100 | > 100 | > 100 | > 100 | > 100 | > 100 | > 100 | > 100 | > 100 |
| CCOC(=O)C(NC(=O)c1cccc(Cl)c1)(N1CCN(c2cc3c(cc2F)c(=O)c(C(=O)O)cn3C2CC2)CC1)C(F)(F)F (stereo not given) | 28.3 | 55.7 | 38.4 | 55.2 | 50 | 58 | – | 41.5 | 32.2 | – | 42.9 | – | 60.7 | 50.7 | 48.9 | – | 18.3 | 47.3 | 9.78 |
| COc1ccc(C(=C2C(=O)N(c3ccccc3)C(=O)C2=C(C)C)c2ccc(OC)cc2)cc1 | 23.7 | 16 | > 39.2 | > 24.4 | > 66.2 | > 39 | 20.2 | > 36.6 | > 100 | > 45.4 | > 100 | 15.7 | > 32.1 | > 43.6 | > 100 | > 47.5 | > 46.1 | > 31 | – |
| O=S(=O)(Oc1ccc2ccccc2c1-c1c(OS(=O)(=O)C(F)(F)F)ccc2ccccc12)C(F)(F)F | > 100 | > 100 | > 100 | > 100 | > 100 | > 100 | > 100 | > 100 | > 100 | > 100 | > 100 | > 100 | > 100 | > 100 | – | – | > 100 | > 100 | > 100 |
| NS(=O)(=O)c1nnc(NS(=O)(=O)c2ccc(Cl)cc2)s1 | > 100 | > 100 | > 100 | > 100 | > 100 | > 100 | > 100 | – | > 100 | > 100 | > 100 | > 100 | > 100 | – | > 100 | > 100 | > 100 | > 100 | – |
| O=C(NCCCNCCCCNCCCNC(=O)c1cc(-c2ccccc2)nc2ccccc12)c1cc(-c2ccccc2)nc2ccccc12 | 3 | 47.5 | 15.5 | 18 | 11.2 | 4.32 | 3.57 | 5.35 | 4.01 | 3.78 | 19.7 | 5.64 | – | – | 12.1 | 23.8 | – | 40 | 3.63 |
| O=C(Nc1ncc([N+](=O)[O-])s1)c1ccccc1O | > 100 | > 100 | 79.2 | > 92.2 | > 59.6 | 32.5 | > 76.2 | > 100 | 77.2 | > 100 | > 100 | 28.3 | > 100 | > 70.8 | 64 | > 100 | > 100 | 98.1 | – |
| COC(=O)C(/C(=N/N)C(=O)Nc1cccc(O)c1)c1nc2ccccc2[nH]c1=O (stereo not given) | > 100 | > 100 | > 100 | > 100 | > 100 | > 100 | > 100 | > 100 | – | > 100 | > 100 | > 100 | > 100 | > 100 | > 100 | > 100 | > 100 | > 100 | – |
| CCCCc1ccc(Nc2nc(Cl)c3ncn(C4CC(Oc5ccc(C)cc5)C(COc5ccc(C)cc5)O4)c3n2)cc1 (stereo not given) | > 100 | > 100 | > 100 | > 100 | > 100 | > 100 | > 100 | > 100 | > 100 | > 100 | – | > 100 | > 100 | > 100 | > 100 | > 100 | – | > 100 | > 100 |
